Source: patent publication US9440969B2, “Compounds and methods for kinase modulation, and indications therefor” (PLEXXIKON INC., priority 2009, dated 2016)

Tests used:
[1] = target: B-Raf V600E (Homo sapiens, UniProt P15056, V600E); experiment: B-Raf V600E kinase activity assay (AlphaScreen, biotin-MEK1 substrate); conditions: 100 μM ATP, 100 nM biotin-MEK1, 45 minutes at room temperature, read-out: Biochemical activity (IC50 μM) V600E
Description: (§1) Assays for biochemical and cell based activity are known in the art, for example, as described in PCT publication WO 2007/002433, the disclosure of which is hereby incorporated by reference as it relates to such assays. For example, the biochemical activity IC50 values are determined with respect to inhibition of B-Raf kinase activity, c-Raf-1 kinase activity, or B-Raf V600E kinase activity, where inhibition of phosphorylation of a peptide substrate is measured as a function of compound concentration. Compounds to be tested are diluted in dimethyl sulfoxide to a concentration of 0.1 mM. These are serially diluted 15 μL into 30 μL of dimethyl sulfoxide seven times in 96 well plates for a total of 8 dilution points, and for each dilution point 1 μL is added to a well of an assay plate. Plates are prepared such that each well in a 384 well plate contains 1 μL of compound in 10 μL, volume with 0.1 ng Raf enzyme (i.e. any of B-Raf, c-Raf-1 or B-Raf V600E, Upstate Biotechnology or prepared by methods known to one of skill in the art), 50 mM HEPES, pH 7.0, 50 mM NaCl, 2 mM MgCl2, 1 mM MnCl2, 0.01% Tween-20, 1 mM DTT, and 100 nM biotin-MEK1 as substrate. The reaction is started with addition of 10 μL of 200 μM ATP (i.e. final 100 μM ATP). After incubation of the kinase reaction for 45 minutes at room temperature, 5 μL/well of Stop Solution is added (25 mM Hepes pH 7.5, 100 mM EDTA, 0.01% BSA with donor beads (Streptavidin coated beads, Perkin Elmer), acceptor beads (Protein A coated, Perkin Elmer), and anti phosphor MEK1/2 antibody (CellSignal), each at final concentration 10 μg/mL). The plates are incubated for 3 hours at room temperature and read on Envision reader (Perkin Elmer). Phosphorylation of Mek1 results in binding of the anti-phosphor-MEK1/2 antibody and association of the donor and acceptor beads such that signal correlates with kinase activity. The signal vs. compound concentration is used to determine the IC50.

[2] = target: c-Raf-1 (Homo sapiens, UniProt P04049); experiment: c-Raf-1 kinase activity assay (AlphaScreen, biotin-MEK1 substrate); conditions: 100 μM ATP, 100 nM biotin-MEK1, 45 minutes at room temperature; read-out: Biochemical activity (IC50 μM) c-Raf-1
c-Raf-1, sequence (P04049 whole entry Y340D/Y341D, form open): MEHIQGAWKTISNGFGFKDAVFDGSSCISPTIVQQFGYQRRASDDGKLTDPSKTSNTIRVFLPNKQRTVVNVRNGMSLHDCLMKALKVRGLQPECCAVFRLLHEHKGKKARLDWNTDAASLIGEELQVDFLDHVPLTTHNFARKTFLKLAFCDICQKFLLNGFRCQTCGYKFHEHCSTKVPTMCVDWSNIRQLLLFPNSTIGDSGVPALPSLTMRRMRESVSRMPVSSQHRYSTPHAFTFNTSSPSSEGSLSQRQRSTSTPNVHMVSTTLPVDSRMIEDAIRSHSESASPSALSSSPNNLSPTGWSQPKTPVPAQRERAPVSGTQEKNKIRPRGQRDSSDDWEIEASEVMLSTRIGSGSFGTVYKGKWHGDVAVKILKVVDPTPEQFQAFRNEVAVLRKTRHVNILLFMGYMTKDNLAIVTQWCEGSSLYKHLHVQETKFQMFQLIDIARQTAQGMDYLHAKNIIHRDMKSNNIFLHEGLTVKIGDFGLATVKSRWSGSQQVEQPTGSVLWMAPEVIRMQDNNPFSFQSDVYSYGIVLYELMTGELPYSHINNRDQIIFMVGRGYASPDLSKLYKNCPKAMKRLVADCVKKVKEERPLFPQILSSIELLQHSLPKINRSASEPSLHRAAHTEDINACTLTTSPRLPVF
Description: as §1

[3] = target: B-Raf (Homo sapiens, UniProt P15056); experiment: B-Raf kinase activity assay (AlphaScreen, biotin-MEK1 substrate); conditions: 100 μM ATP, 100 nM biotin-MEK1, 45 minutes at room temperature; read-out: Biochemical activity (IC50 μM) B-Raf
B-Raf, sequence (P15056 whole entry): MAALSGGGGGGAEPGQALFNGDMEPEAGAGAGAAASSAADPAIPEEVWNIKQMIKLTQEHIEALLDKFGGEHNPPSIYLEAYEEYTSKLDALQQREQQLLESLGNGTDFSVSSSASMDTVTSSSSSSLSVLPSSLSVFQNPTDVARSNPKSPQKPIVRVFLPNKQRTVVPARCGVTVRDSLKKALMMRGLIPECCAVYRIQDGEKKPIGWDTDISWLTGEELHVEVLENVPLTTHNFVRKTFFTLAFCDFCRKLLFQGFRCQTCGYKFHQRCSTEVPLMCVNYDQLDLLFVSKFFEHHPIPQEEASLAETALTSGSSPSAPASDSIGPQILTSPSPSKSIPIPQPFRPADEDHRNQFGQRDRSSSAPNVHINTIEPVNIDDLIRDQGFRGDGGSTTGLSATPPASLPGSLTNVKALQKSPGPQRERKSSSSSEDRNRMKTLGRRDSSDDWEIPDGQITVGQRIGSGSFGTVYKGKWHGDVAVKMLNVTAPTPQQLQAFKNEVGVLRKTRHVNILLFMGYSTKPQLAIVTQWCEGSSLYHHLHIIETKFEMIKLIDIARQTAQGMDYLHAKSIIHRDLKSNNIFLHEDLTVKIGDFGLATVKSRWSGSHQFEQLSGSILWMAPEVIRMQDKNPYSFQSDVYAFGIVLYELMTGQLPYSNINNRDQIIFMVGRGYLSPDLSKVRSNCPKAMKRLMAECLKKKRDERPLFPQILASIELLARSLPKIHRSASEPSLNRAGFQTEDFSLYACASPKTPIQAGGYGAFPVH
Description: as §1

[4] = Relative solubility by turbidity in aqueous buffers (pH 1.5, 4.5, 6.8, 7.4); type: physicochemical
Description: As an indication of relative solubility, the turbidity of compounds in aqueous solutions is assessed. To assess possible compound properties in different physiological compartments, such as stomach, intestine, and blood, a series of aqueous buffers with varying pH is used. Thus each compound is diluted into four different physiologically relevant buffers and solution turbidity is measured by spectrophotometry.
Compounds are dissolved at a concentration of 25 mM in dimethyl sulfoxide, then serially diluted 1:1 into a 96 well plate, diluting 10 times in pure dimethyl sulfoxide, with the final well of each row a dimethyl sulfoxide blank. In an assay plate, 99 μL of appropriate buffer is added to each well, and 1 μL of each sample dilution is added to the buffer, achieving a range of final total concentrations in aqueous solutions having different pH. The buffers used are Simulated Gastric Fluid (SGF-pH 1.5) 0.5M NaCl, pH 1.5; Simulated Intestinal fluid (SIF-pH 4.5 and pH 6.8) 0.05M NaH2PO4, pH 4.5 and 6.8; and Hepes Buffer (HEPES-pH 7.4) 10 mM HEPES, 150 mM NaCl, pH 7.4. Control compounds pyrene, estriol and propranolol HCl are also assessed. Plates are spun and then mixed for 1 minute, and the absorbance is read using a Tecan Safire II to read wavelengths in the visible range (490, 535, and 650 nm) at four locations per well, reflecting the degree of turbidity present. The average optical density for each wavelength in each well is graphed vs. compound concentration, and the concentration at which the curve crosses a threshold O.D. of 0.01 for each wavelength is reported as the endpoint turbidity assay result. The average of the three wavelengths is used to compare turbidity of compounds. Compounds are considered to have low solubility if the threshold concentration is <31.3 μM, moderate solubility if the threshold concentration is 31.3 μM to 250 μM, and high solubility if the threshold concentration is >250 μM.
The following table indicates the relative solubility (L=low, M=moderate, H=high) based on turbidity threshold concentration at each pH for exemplary compounds according to the invention: […]

B-Raf V600E, sequence (P15056 whole entry V600E): as the sequence (P15056 whole entry) above, with V600E counted along it

| Structure (SMILES) | IC50 [1] | IC50 [2] | IC50 [3] | turbidity threshold (L, M, H) 1.4 ([4]; pH 1.5 buffer (SGF)) | turbidity threshold (L, M, H) 4.5 ([4]; pH 4.5 buffer (SIF)) | turbidity threshold (L, M, H) 6.8 ([4]; pH 6.8 buffer (SIF)) | turbidity threshold (L, M, H) 7.4 ([4]; pH 7.4 buffer (HEPES)) |
| --- | --- | --- | --- | --- | --- | --- | --- |
| CNS(=O)(=O)c1ccc(-c2cnc3[nH]cc(C(=O)c4c(F)ccc(NS(=O)(=O)c5cc(F)ccc5F)c4F)c3c2)cc1 [P-1706, N-{2,4-Difluoro-3-[5-(4-methylsulfamoyl-phenyl)-1H-pyrrolo[2,3-b]pyridine-3-carbonyl]-phenyl}-2,5-difluoro-benzenesulfonamide] | < 0.1 µM | < 0.1 µM | < 0.1 µM | – | – | – | – |
| CCCS(=O)(=O)Nc1ccc(F)c(C(=O)c2c[nH]c3ncc(NC(=O)C4C=C(C)ON4)cc23)c1F (stereo not shown) [P-1802, 5-Methyl-2,3-dihydro-isoxazole-3-carboxylic acid {3-[2,6-difluoro-3-(propane-1-sulfonylamino)-benzoyl]-1H-pyrrolo[2,3-b]pyridin-5-yl}-amide] | < 0.1 µM | ~0.1 µM | < 1 µM | – | – | – | – |
| O=C(c1c(F)ccc(NS(=O)(=O)c2cc(F)ccc2F)c1F)c1c[nH]c2ncc(-c3cncnc3)cc12 [P-1500, N-[2,4-Difluoro-3-(5-pyrimidin-5-yl-1H-pyrrolo[2,3-b]pyridine-3-carbonyl)-phenyl]-2,5-difluoro-benzenesulfonamide] | < 0.1 µM | < 0.1 µM | < 0.1 µM | – | – | – | – |
| CCCS(=O)(=O)Nc1ccc(F)c(C(=O)c2c[nH]c3ncc(-c4ccc5ncncc5c4)cc23)c1F [P-0026, Propane-1-sulfonic acid [2,4-difluoro-3-(5-quinazolin-6-yl-1H-pyrrolo[2,3-b]pyridine-3-carbonyl)-phenyl]-amide] | < 0.1 µM | < 0.1 µM | < 0.1 µM | – | – | – | – |
| O=C(c1c(F)ccc(NS(=O)(=O)c2cc(F)ccc2F)c1F)c1c[nH]c2ncc(-c3cccnc3)cc12 [P-1402, N-[2,4-Difluoro-3-(5-pyridin-3-yl-1H-pyrrolo[2,3-b]pyridine-3-carbonyl)-phenyl]-2,5-difluoro-benzenesulfonamide] | < 0.1 µM | < 0.1 µM | < 0.1 µM | – | – | – | – |
| O=C(c1c(F)ccc(NS(=O)(=O)c2cc(F)ccc2F)c1F)c1c[nH]c2ncc(-c3ccncc3)cc12 [P-1403, N-[2,4-Difluoro-3-(5-pyridin-4-yl-1H-pyrrolo[2,3-b]pyridine-3-carbonyl)-phenyl]-2,5-difluoro-benzenesulfonamide] | < 0.1 µM | < 0.1 µM | < 0.1 µM | – | – | – | – |
| CCCS(=O)(=O)Nc1ccc(F)c(C(=O)c2c[nH]c3ncc(NC(=O)c4cccnc4)cc23)c1F [P-1800, N-{3-[2,6-Difluoro-3-(propane-1-sulfonylamino)-benzoyl]-1H-pyrrolo[2,3-b]pyridin-5-yl}-nicotinamide] | < 0.1 µM | < 0.1 µM | < 1 µM | – | – | – | – |
| CN(C)c1ccc(-c2cnc3[nH]cc(C(=O)c4c(F)ccc(NS(=O)(=O)c5cc(F)ccc5F)c4F)c3c2)cn1 [P-1409, N-{3-[5-(6-Dimethylamino-pyridin-3-yl)-1H-pyrrolo[2,3-b]pyridine-3-carbonyl]-2,4-difluoro-phenyl}-2,5-difluoro-benzenesulfonamide] | < 0.1 µM | < 0.1 µM | < 0.1 µM | L (low solubility if the threshold concentration is <31.3 μM) | L (low solubility if the threshold concentration is <31.3 μM) | L (low solubility if the threshold concentration is <31.3 μM) | L (low solubility if the threshold concentration is <31.3 μM) |
| CCCS(=O)(=O)Nc1ccc(F)c(C(=O)c2c[nH]c3ncc(-c4c(C)nn(S(=O)(=O)c5cn(C)nc5C)c4C)cc23)c1F [P-1007, Propane-1-sulfonic acid (3-{5-[1-(1,3-dimethyl-1H-pyrazole-4-sulfonyl)-3,5-dimethyl-1H-pyrazol-4-yl]-1H-pyrrolo[2,3-b]pyridine-3-carbonyl}-2,4-difluoro-phenyl)-amide] | < 0.1 µM | < 0.1 µM | < 0.1 µM | – | – | – | – |
| NS(=O)(=O)c1ccc(-c2cnc3[nH]cc(C(=O)c4c(F)ccc(NS(=O)(=O)c5cc(F)ccc5F)c4F)c3c2)cc1 [P-1707, N-{2,4-Difluoro-3-[5-(4-sulfamoyl-phenyl)-1H-pyrrolo[2,3-b]pyridine-3-carbonyl]-phenyl}-2,5-difluoro-benzenesulfonamide] | < 0.1 µM | < 0.1 µM | < 0.1 µM | – | – | – | – |
| O=C(c1c(F)ccc(NS(=O)(=O)c2cc(F)ccc2F)c1F)c1c[nH]c2ncc(-c3ccncc3F)cc12 [P-1405, N-{2,4-Difluoro-3-[5-(3-fluoro-pyridin-4-yl)-1H-pyrrolo[2,3-b]pyridine-3-carbonyl]-phenyl}-2,5-difluoro-benzenesulfonamide] | < 0.1 µM | < 0.1 µM | < 0.1 µM | – | – | – | – |
| CS(=O)(=O)c1cncc(-c2cnc3[nH]cc(C(=O)c4c(F)ccc(NS(=O)(=O)c5cc(F)ccc5F)c4F)c3c2)c1 [P-1407, N-{2,4-Difluoro-3-[5-(5-methanesulfonyl-pyridin-3-yl)-1H-pyrrolo[2,3-b]pyridine-3-carbonyl]-phenyl}-2,5-difluoro-benzenesulfonamide] | < 0.1 µM | < 0.1 µM | < 0.1 µM | – | – | – | – |
| CCCS(=O)(=O)Nc1ccc(F)c(C(=O)c2c[nH]c3ncc(-c4c(C)nn(-c5nnn[nH]5)c4C)cc23)c1F [P-1006, Propane-1-sulfonic acid (3-{5-[3,5-dimethyl-1-(1H-tetrazol-5-yl)-1H-pyrazol-4-yl]-1H-pyrrolo[2,3-b]pyridine-3-carbonyl}-2,4-difluoro-phenyl)-amide] | < 0.1 µM | < 0.1 µM | < 0.1 µM | – | – | – | – |
| Cn1cc(-c2cnc3[nH]cc(C(=O)c4c(F)ccc(NS(=O)(=O)c5cc(F)ccc5F)c4F)c3c2)cn1 [P-1009, N-{2,4-Difluoro-3-[5-(1-methyl-1H-pyrazol-4-yl)-1H-pyrrolo[2,3-b]pyridine-3-carbonyl]-phenyl}-2,5-difluoro-benzenesulfonamide] | < 0.1 µM | < 0.1 µM | < 0.1 µM | – | – | – | – |
| CCCS(=O)(=O)Nc1ccc(F)c(C(=O)c2c[nH]c3ncc(-c4cccc5nccn45)cc23)c1F [P-0018, Propane-1-sulfonic acid [2,4-difluoro-3-(5-imidazo[1,2-a]pyridin-5-yl-1H-pyrrolo[2,3-b]pyridine-3-carbonyl)-phenyl]-amide] | < 0.1 µM | < 0.1 µM | < 0.1 µM | – | – | – | – |
| O=C(c1c(F)ccc(NS(=O)(=O)c2cc(F)ccc2F)c1F)c1c[nH]c2ncc(-c3cnco3)cc12 [P-1300, N-[2,4-Difluoro-3-(5-oxazol-5-yl-1H-pyrrolo[2,3-b]pyridine-3-carbonyl)-phenyl]-2,5-difluoro-benzenesulfonamide] | < 0.1 µM | < 0.1 µM | < 0.1 µM | – | – | – | – |
| CCCS(=O)(=O)Nc1ccc(F)c(C(=O)c2c[nH]c3ncc(-c4cnc(-n5cccn5)s4)cc23)c1F [P-1109, Propane-1-sulfonic acid {2,4-difluoro-3-[5-(2-pyrazol-1-yl-thiazol-5-yl)-1H-pyrrolo[2,3-b]pyridine-3-carbonyl]-phenyl}-amide] | < 0.1 µM | < 0.1 µM | < 0.1 µM | – | – | – | – |
